Assays:
Format in all cases: in vivo
SCIRPUS JUNCOIDES = experiment: Preemergence evaluation in the presence of transplanted rice under flooded paddy conditions (Example 43), SCPJU (Bulrush, Japanese); design: key: visual rating on a 0-9 scale, compared with control; conditions: applied three days after sowing, 25 to 30 days after treatment
Procedure: (§1) Results of herbicide evaluation are expressed on a rating scale (0-9). The scale is based upon a visual observation of plant stand, vigor, malformation, size, chlorosis and overall plant appearance as compared with a control.
(§2) In this example, Deluvian paddy soil (Toyokawa paddy soil) is placed in plastic pots, 100cm^2 x 9 cm in depth. Water is added to the level of the soil surface in the pot and the mixture is paddled 3 cm in depth.
(§3) Pots are then variously sown with monocotyledenous weed seeds and tubers at 0-2 cm in soil depth, as well as transplanted rice plants at the 2.5 leaf stage. The rice plants are transplanted at about 3 cm soil depth. Water is then added to all of the pots to 3 cm deep and kept at a depth of 3 cm for the duration of the test. Test compounds are applied in the manner described in Example 42 three days after transplanting the rice plants and sowing the weed seeds and tubers. The pots are then placed on greenhouse benches and cared for in the conventional manner. Tests are examined at 25 to 30 days after treatment and rated according to the rating system provided in Example 40. The compounds evaluated are reported by compound number given in Example 40.

SAGITTARIA PYGMAEA = experiment: Preemergence evaluation in the presence of transplanted rice under flooded paddy conditions (Example 43), SAGPY (Arrowhead (Pygmaea)); design: key: visual rating on a 0-9 scale, compared with control; conditions: applied three days after sowing, 25 to 30 days after treatment
Procedure: as §1, §2, §3

[…] = Preemergence evaluation in the presence of transplanted rice under flooded paddy conditions (Example 43), MOOVA (Monochoria); conditions: applied three days after sowing, 25 to 30 days after treatment
Procedure: as §1, §2, §3

ECHINOCHLOA CRUS-GALLI = experiment: Preemergence evaluation in the presence of transplanted rice under flooded paddy conditions (Example 43), ECHCG (Barnyard Grass); design: key: visual rating on a 0-9 scale, compared with control; conditions: applied three days after sowing, 25 to 30 days after treatment
Procedure: as §1, §2, §3

[1] = test system: ORYZA SATIVA, L. CV. KOSHIHIKARI; experiment: Post-transplant rice evaluation under flooded paddy conditions (Example 43), ORYSAK (Rice, Koshihikari); design: key: visual rating on a 0-9 scale, compared with control; conditions: applied three days after transplanting rice, 25 to 30 days after treatment
Procedure: as §1, §2, §3

[2] = test system: TRITICUM AESTIVUM, CV. APOLLO; experiment: Preemergence herbicidal evaluation, TRZAWO (Wheat, Winter, CV. APOLLO); conditions: for TRZAWO rating: four to five weeks after treatment; for TRZAWO herbicidal rating: rated four to five weeks after treatment
Summary of the method: (§4)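 Greenhouse preemergence test; treated soil cups received compound in aqueous acetone (about 0.125 to 0.50 kg/ha) right after sowing and were assessed visually 4-5 weeks later on a 0-9 scale compared with control plants.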

[3] = test system: ECHINOCHLOA CRUS-GALLI, (L) BEAU; experiment: Preemergence herbicidal evaluation, ECHCG (Barnyardgrass); conditions: for ECHCG rating: four to five weeks after treatment; for ECHCG herbicidal rating: rated four to five weeks after treatment
Summary of the method: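 Barnyardgrass seeds were mixed with potting soil and planted on about one inch of soil in pint cups for preemergence testing. Treated cups were kept on greenhouse benches, watered and maintained by standard greenhouse practice. After four to five weeks, each cup was visually rated on a 0-9 scale against an untreated control.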

CYPERUS DIFFORMIS = experiment: Preemergence evaluation in the presence of transplanted rice under flooded paddy conditions (Example 43), CYPDI (Flatsedge, smallflower); design: key: visual rating on a 0-9 scale, compared with control; conditions: applied three days after sowing, 25 to 30 days after treatment
Procedure: as §1, §2, §3

[4] = test system: AMBROSIA ARTEMISIIFOLIA, L.; experiment: Preemergence herbicidal evaluation, AMBEL (Ragweed, Common); conditions: for AMBEL herbicidal rating: rated four to five weeks after treatment
Summary of the method: as §4

IPOMOEA SPP. = experiment: Preemergence herbicidal evaluation, IPOSS (Morningglory spp.); conditions: for IPOSS herbicidal rating: rated four to five weeks after treatment
Summary of the method: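 Seeds of morningglory (Ipomoea spp.) were mixed with potting soil and sown on roughly one inch of soil in pint cups for a preemergence herbicide test. The cups were put on greenhouse benches, watered, and maintained by standard greenhouse practice. Four to five weeks after treatment each cup was scored visually on a 0-9 scale against a control.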

[5] = test system: SETARIA VIRIDIS, (L) BEAU; experiment: Preemergence herbicidal evaluation, SETVI (Foxtail, Green); conditions: for SETVI herbicidal rating: rated four to five weeks after treatment
Summary of the method: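 Seeds of green foxtail (Setaria viridis) were mixed with potting soil and sown on top of roughly one inch of soil in pint cups for a preemergence herbicide test. Treated cups were kept on greenhouse benches, watered, and cared for conventionally. Four to five weeks after treatment, plants were rated visually on a 0-9 scale against a control.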

[6] = test system: ORYZA SATIVA, L. TEBONNET; experiment: Preemergence herbicidal evaluation, ORYSAT (Rice, Tebonnet); conditions: for ORYSAT herbicidal rating: rated four to five weeks after treatment
Summary of the method: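 Seeds of rice (Oryza sativa, Tebonnet) were mixed with potting soil and sown on about one inch of soil in pint cups, then treated preemergence. Cups sat on greenhouse benches, watered and tended by standard greenhouse practice. Four to five weeks after treatment, plants were visually scored on a 0-9 scale relative to a control.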

In the case of `COC(=O)Cn1c(=O)[nH]c(=O)n(-c2cc(Oc3ccc(C(F)(F)F)cc3Cl)ccc2[N+](=O)[O-])c1=O` [Compound 8, Methyl 3-{5-[(2-chloro-α,α,α-trifluoro-p-tolyl)oxy]-2-nitrophenyl}tetrahydro-2,4,6-trioxo-s-triazine-1(2H)-acetate], the “Herbicidal effect rating, SCPJU” value (SCIRPUS JUNCOIDES; 0.032 kg/ha) is reported as 1.0, the “Herbicidal effect rating, SCPJU” value (SCIRPUS JUNCOIDES; 0.063 kg/ha) is reported as 5.0 and the “Herbicidal effect rating, SCPJU” value (SCIRPUS JUNCOIDES; 0.125 kg/ha) is reported as 7.0. For the same compound, the “Herbicidal effect rating, SCPJU” value (SCIRPUS JUNCOIDES; 0.250 kg/ha) was 8.0, the “Herbicidal effect rating, SAGPY” value (SAGITTARIA PYGMAEA; 0.032 kg/ha) was 1.0 and the “Herbicidal effect rating, SAGPY” value (SAGITTARIA PYGMAEA; 0.063 kg/ha) was 3.0. The “Herbicidal effect rating, SAGPY” value (SAGITTARIA PYGMAEA; 0.125 kg/ha) was 6.0, the “Herbicidal effect rating, SAGPY” value (SAGITTARIA PYGMAEA; 0.250 kg/ha) was 8.0 and the “Herbicidal effect rating, MOOVA” value ([…]; 0.032 kg/ha) was 7.0. For the same compound, the “Herbicidal effect rating, MOOVA” value ([…]; 0.063 kg/ha) was 9.0, the “Herbicidal effect rating, MOOVA” value ([…]; 0.125 kg/ha) was 9.0 and the “Herbicidal effect rating, MOOVA” value ([…]; 0.250 kg/ha) was 9.0. The “Herbicidal effect rating, ECHCG” value (ECHINOCHLOA CRUS-GALLI; 0.032 kg/ha) was 8.0, the “Herbicidal effect rating, ECHCG” value (ECHINOCHLOA CRUS-GALLI; 0.063 kg/ha) was 8.0 and the “Herbicidal effect rating, ECHCG” value (ECHINOCHLOA CRUS-GALLI; 0.125 kg/ha) was 9.0. For the same compound, the “Herbicidal effect rating, ECHCG” value (ECHINOCHLOA CRUS-GALLI; 0.250 kg/ha) was 9.0, the “Herbicidal effect rating, ORYSAK” value ([1]; 0.032 kg/ha) was 2.0 and the “Herbicidal effect rating, ORYSAK” value ([1]; 0.063 kg/ha) was 3.0. The “Herbicidal effect rating, ORYSAK” value ([1]; 0.125 kg/ha) was 2.0, the “Herbicidal effect rating, ORYSAK” value ([1]; 0.250 kg/ha) was 6.0 and the TRZAWO rating ([2]; Rate 0.125 kg/ha) was 3.0. It also gave a TRZAWO rating ([2]; Rate 0.250 kg/ha) of 3.0, a TRZAWO rating ([2]; Rate 0.500 kg/ha) of 3.0 and an ECHCG rating ([3]; Rate 0.125 kg/ha) of 0.0. The ECHCG rating ([3]; Rate 0.250 kg/ha) was 0.0, the ECHCG rating ([3]; Rate 0.500 kg/ha) was 0.0 and the “Herbicidal effect rating, CYPDI” value (CYPERUS DIFFORMIS; 0.032 kg/ha) was 7.0. For the same compound, the “Herbicidal effect rating, CYPDI” value (CYPERUS DIFFORMIS; 0.063 kg/ha) was 9.0, the “Herbicidal effect rating, CYPDI” value (CYPERUS DIFFORMIS; 0.125 kg/ha) was 9.0 and the “Herbicidal effect rating, CYPDI” value (CYPERUS DIFFORMIS; 0.250 kg/ha) was 9.0.

“Methyl 3-{2-[(2-chloro-α,α,α,-trifluoro-p-tolyl)oxy]phenyl}tetrahydro-5-methyl-2,4,6-trioxo-s-triazine-1(2H)-acetate [Compound 28]” was tested, and the AMBEL ([4]; Rate 0.125 kg/ha) was 5.0, the AMBEL herbicidal rating ([4]; Rate 0.125 kg/ha) was 5.0 and the AMBEL ([4]; Rate 0.250 kg/ha) was 5.0. The AMBEL herbicidal rating ([4]; Rate 0.250 kg/ha) was 5.0, the AMBEL ([4]; Rate 0.500 kg/ha) was 7.0 and the AMBEL herbicidal rating ([4]; Rate 0.500 kg/ha) was 7.0. For the same compound, the AMBEL ([4]; Rate 1.000 kg/ha) was 5.0, the IPOSS (IPOMOEA SPP.; Rate 0.125 kg/ha) was 2.0 and the IPOSS herbicidal rating (IPOMOEA SPP.; Rate 0.125 kg/ha) was 2.0. It also gave an IPOSS (IPOMOEA SPP.; Rate 0.250 kg/ha) of 3.0, an IPOSS herbicidal rating (IPOMOEA SPP.; Rate 0.250 kg/ha) of 3.0 and an IPOSS (IPOMOEA SPP.; Rate 0.500 kg/ha) of 6.0. The IPOSS herbicidal rating (IPOMOEA SPP.; Rate 0.500 kg/ha) was 6.0, the IPOSS (IPOMOEA SPP.; Rate 1.000 kg/ha) was 7.0 and the SETVI ([5]; Rate 0.125 kg/ha) was 0.0. It also gave an SETVI herbicidal rating ([5]; Rate 0.125 kg/ha) of 0.0, an SETVI ([5]; Rate 0.250 kg/ha) of 2.0 and an SETVI herbicidal rating ([5]; Rate 0.250 kg/ha) of 2.0. The SETVI ([5]; Rate 0.500 kg/ha) was 3.0, the SETVI herbicidal rating ([5]; Rate 0.500 kg/ha) was 3.0 and the SETVI ([5]; Rate 1.000 kg/ha) was 6.0. It also gave an ORYSAT ([6]; Rate 0.125 kg/ha) of 1.0, an ORYSAT herbicidal rating ([6]; Rate 0.125 kg/ha) of 1.0 and an ORYSAT ([6]; Rate 0.250 kg/ha) of 2.0. The ORYSAT herbicidal rating ([6]; Rate 0.250 kg/ha) was 2.0, the ORYSAT ([6]; Rate 0.500 kg/ha) was 4.0 and the ORYSAT herbicidal rating ([6]; Rate 0.500 kg/ha) was 4.0. The ORYSAT ([6]; Rate 1.000 kg/ha) was 4.0, the TRZAWO ([2]; Rate 0.125 kg/ha) was 0.0 and the TRZAWO herbicidal rating ([2]; Rate 0.125 kg/ha) was 0.0. For the same compound, the TRZAWO ([2]; Rate 0.250 kg/ha) was 0.0, the TRZAWO herbicidal rating ([2]; Rate 0.250 kg/ha) was 0.0 and the TRZAWO ([2]; Rate 0.500 kg/ha) was 1.0. It also gave a TRZAWO herbicidal rating ([2]; Rate 0.500 kg/ha) of 1.0, a TRZAWO ([2]; Rate 1.000 kg/ha) of 1.0 and an ECHCG ([3]; Rate 0.125 kg/ha) of 0.0. The ECHCG herbicidal rating ([3]; Rate 0.125 kg/ha) was 0.0, the ECHCG ([3]; Rate 0.250 kg/ha) was 2.0 and the ECHCG herbicidal rating ([3]; Rate 0.250 kg/ha) was 2.0. It also gave an ECHCG ([3]; Rate 0.500 kg/ha) of 3.0, an ECHCG herbicidal rating ([3]; Rate 0.500 kg/ha) of 3.0 and an ECHCG ([3]; Rate 1.000 kg/ha) of 6.0.

`Cn1c(=O)[nH]c(=O)n(-c2cc(Oc3c(F)cc(C(F)(F)F)cc3Cl)ccc2F)c1=O` [C, reference compound] gave an AMBEL ([4]; Rate 0.031 kg/ha) of 0.0, an AMBEL ([4]; Rate 0.063 kg/ha) of 0.0 and an AMBEL ([4]; Rate 0.125 kg/ha) of 0.0. It also gave an AMBEL ([4]; Rate 0.250 kg/ha) of 0.0.

From patent publication EP0745595A1, “3-(3-Aryloxyphenyl)-1-(substituted methyl)-s-triazine-2,4,6-oxo or thiotrione herbicidal agents” (American Cyanamid Company, priority 1995, dated 1996)
